The test system of this data set is sheep red blood cells. Description: Hemolytic activity assay. The format is cell-based. The conditions noted are these: for percent hemolysis: 2% sRBCs in PBS, 37 °C, 1 h, OD540, triplicate mean. On the procedure:
The peptide toxicity to the mammalian system was screened based on the hemolytic test by measuring the hemoglobin released from ruptured red blood cells (RBCs). In this study, sheep RBCs (sRBCs) were employed. They were thrice washed and prepared as a suspension in phosphate-buffered saline (PBS, Oxoid). A suspension of 2% sRBCs was incubated with 2-fold serial dilutions of peptide (final concentrations; 256 to 1 µM in a total volume of 200 µL) at 37 °C for 1 h. The solutions of 0.1% (final concentration) Triton X-100 (Sigma-Aldrich) and PBS containing the peptide solvent were used instead of the peptides as the controls of hemolysis at 100% and 0%, respectively. Thereafter, the post-incubated suspensions were centrifuged (1000× g, 3 min) to pelletize residual sRBCs. The supernatants were then transferred into a flat-bottom PS 96-well plate and were measured the absorbance at 540 nm (OD540) by a microplate reader. The test was conducted in triplicate and the mean OD540 was used to calculate the hemolysis (%) as; ((OD540 (peptide) − OD540 (PBS + peptide solvent))/(OD540 (0.1% Triton X-100) − OD540 (PBS + peptide solvent))) × 100. The hemolytic concentration 50 (HC50), a concentration inducing 50% hemolysis, was determined.
The GraphPad Prism version 7.00 (GraphPad Software, La Jolla, CA, USA) was applied for all statistical analyses and data visualizations. Replicate quantitative results were calculated and shown as mean ± SD, unless otherwise specified. The HC50 values were determined using nonlinear regression analysis. The paired t-test and repeated measures one-way ANOVA with Tukey’s multiple comparison test were applied to compare between 2 groups and among 3 or more groups, respectively. The comparisons were considered as a statistically significant difference when a p-value < 0.05.

Marks after values point to notes of the source that are not given here. Ends that are not written are not given here.

Turning to FIRRIARLLRRIF-NH2 [Kn2-5R-NH2], under “concentration inducing 50% hemolysis of sRBCs, nonlinear regression, unit (µM)”, the “HC50 (hemolytic concentration 50)” value stood at 67.09 µM. For the same substance, the percent hemolysis is 0.1% (peptide 1 µM); 0.3% (peptide 2 µM); 2 * % (peptide 4 µM); 2.5% (peptide 8 µM); 5.4% (peptide 16 µM); 16.9% (peptide 32 µM). Besides, the percent hemolysis was 40.3% (peptide 64 µM), 99.3% (peptide 128 µM) and 99.5% (peptide 256 µM). Also, the “concentration required for the initiation of hemolysis” value (sRBCs, 60 min, 256–1 µM tested) is 1000 nM.

Values taken from PMC8348142, “Antimicrobial Peptide Modifications against Clinically Isolated Antibiotic-Resistant Salmonella” (Molecules, 2021).
